Laboratory results taken from the C3SDB collision cross section collection.
Values belong to the molecule of their own block, whether it stands above or below them.

Columns and labels:
[1] = instrument: DT, single field, calibrated with Agilent tune mix (Agilent)
[2] = instrument: DT, stepped-field
[3] = instrument: DT, stepped-field; remark: listed apart in the source
[4] = instrument: DT, single field, calibrated with Agilent tune mix (Agilent); remark: listed apart in the source

collision cross section (N2) ([1]; [M+HCOO]-): 251.8 Å²
SMILES: CCCCCCCCCCCCCCCC(=O)N[C@@H](CO)[C@H](O)CCCCCCCCCCCCCCC [Cer(34:0)]

collision cross section (N2) ([1]; [M+HCOO]-): 250.4 Å²
collision cross section (N2) ([1]; [M+H]+): 253.6 Å²
SMILES: CCCCCCCCCCCCC=CC[C@@H](O)[C@H](CO)NC(=O)CCCCCCCCCCCCCCC [Cer(34:1)]

collision cross section (N2) ([2]; [M+H-H2O]+): 257.25 Å²
SMILES: CCCCCCCCCCCCC=CC[C@@H](O)[C@H](CO)NC(=O)CCCCCCCCCCCCCCCCC [Cer(36:01)]

collision cross section (N2) ([1]; [M+HCOO]-): 257.6 Å²
collision cross section (N2) ([1]; [M+H]+): 261.6 Å²
collision cross section (N2) ([1]; [M+Na]+): 268.6 Å²
collision cross section (N2) ([1]; [M-H]-): 248.6 Å²
SMILES: CCCCCCCCCCCCC=CC[C@@H](O)[C@H](CO)NC(=O)CCCCCCCCCCCCCCCCC [Cer(36:1)]

collision cross section (N2) ([1]; [M+HCOO]-): 272 Å²
collision cross section (N2) ([1]; [M+H]+): 274.7 Å²
collision cross section (N2) ([1]; [M-H]-): 262.1 Å²
SMILES: CCCCCCCCCCCCCCCCCCCCCC(=O)N[C@@H](CO)[C@H](O)CCCCCCCCCCCCCCC [Cer(40:0)]

collision cross section (N2) ([2]; [M+H]+): 274.03 Å²
SMILES: CCCCCCCCCCCCCCCCCCCCCC(=O)N[C@@H](CO)[C@H](O)CCCCCCCCCCCCCCC [Cer(40:00)]

collision cross section (N2) ([1]; [M+H]+): 273.5 Å²
collision cross section (N2) ([1]; [M+Na]+): 273.8 Å²
SMILES: CCCCCCCCCCCCC=CC[C@@H](O)[C@H](CO)NC(=O)CC=CCCCCCCCCCCCCCCCCCCC [Cer(41:2)]

collision cross section (N2) ([2]; [M+H]+): 280.05 Å²
collision cross section (N2) ([2]; [M+Na]+): 281.85 Å²
SMILES: CCCCCCCCCCCCCCCCCCCCCCCC(=O)N[C@@H](CO)[C@H](O)CCCCCCCCCCCCCCC [Cer(42:00)]

collision cross section (N2) ([2]; [M+H-H2O]+): 275.52 Å²
SMILES: CCCCCCCCCCCCC=CC[C@@H](O)[C@H](CO)NC(=O)CC=CCCCCCCCCCCCCCCCCCCCCC [Cer(43:02)]

collision cross section (N2) ([1]; [M+H]+): 284.8 Å²
collision cross section (N2) ([1]; [M+Na]+): 285 Å²
SMILES: CCCCCCCCCCCCC=CC[C@@H](O)[C@H](CO)NC(=O)CCCCCCCCCCCCCCCCCCCCCCCCC [Cer(44:1)]

collision cross section (N2) ([1]; [M+NH4]+): 280.3 Å²
SMILES: CC/C=C\C/C=C\C/C=C\C/C=C\C/C=C\C/C=C\CCC(=O)O[C@@H](CO)COC(=O)CCCCCCCCCCCCCCCCCCC [DG(42:6)]

collision cross section (N2) ([2]; [M+Na]+): 278.95 Å²
SMILES: CCCCCCCCCCCCC=CC[C@@H](O)[C@H](CO[C@@H]1O[C@H](CO)[C@@H](O)C(O)C1O)NC(=O)CCCCCCCCCCCCCCC (stereo not given in full) [GlcCer(34:01)]

collision cross section (N2) ([2]; [M+H]+): 287.87 Å²
collision cross section (N2) ([2]; [M+Na]+): 287.34 Å²
SMILES: CCCCCCCCCCCCC=CC[C@@H](O)[C@H](CO[C@@H]1O[C@H](CO)[C@@H](O)C(O)C1O)NC(=O)CC=CCCCCCCCCCCCCCCCC (stereo not given in full) [GlcCer(38:02)]

collision cross section (N2) ([2]; [M+H]+): 284.43 Å²
SMILES: CCCCCCCCCCCCC=CC[C@@H](O)[C@H](CO[C@@H]1O[C@H](CO)[C@@H](O)C(O)C1O)NC(=O)CC=CCC=CCCCCCCCCCCCCC (stereo not given in full) [GlcCer(38:03)]

collision cross section (N2) ([2]; [M+Cl]-): 293.17 Å²
collision cross section (N2) ([2]; [M+HCOO]-): 298.07 Å²
collision cross section (N2) ([2]; [M+H]+): 296.24 Å²
collision cross section (N2) ([2]; [M+Na]+): 297.72 Å²
SMILES: CCCCCCCCCCCCCCCCCCCCCC(=O)N[C@@H](CO[C@@H]1O[C@H](CO)[C@@H](O)C(O)C1O)[C@H](O)CCCCCCCCCCCCCCC (stereo not given in full) [GlcCer(40:00)]

collision cross section (N2) ([2]; [M+Na]+): 296.1 Å²
SMILES: CCCCCCCCCCCCC=CC[C@@H](O)[C@H](CO[C@@H]1O[C@H](CO)[C@@H](O)C(O)C1O)NC(=O)CC=CCCCCCCCCCCCCCCCCCCC (stereo not given in full) [GlcCer(41:02)]

collision cross section (N2) ([2]; [M+Na]+): 297.28 Å²
SMILES: CCCCCCCCCCCCC=CC[C@@H](O)[C@H](CO[C@@H]1O[C@H](CO)[C@@H](O)C(O)C1O)NC(=O)CC=CCC=CCCCCCCCCCCCCCCCCC (stereo not given in full) [GlcCer(42:03)]

collision cross section (N2) ([2]; [M+Na]+): 300.75 Å²
SMILES: CCCCCCCCCCCCC=CC[C@@H](O)[C@H](CO[C@@H]1O[C@H](CO)[C@@H](O)C(O)C1O)NC(=O)CC=CCC=CCCCCCCCCCCCCCCCCCC (stereo not given in full) [GlcCer(43:03)]

collision cross section (N2) ([1]; [M+H]+): 225 Å²
SMILES: CCCCCCCCCCCCCCC(=O)OC[C@@H](O)COP(=O)([O-])OCC[N+](C)(C)C [LPC(15:0)]

collision cross section (N2) ([1]; [M+HCOO]-): 237.7 Å²
SMILES: CCCCCCCCCCCCCCCCC(=O)OC[C@@H](O)COP(=O)([O-])OCC[N+](C)(C)C [LPC(17:0)]

collision cross section (N2) ([1]; [M+H]+): 233.9 Å²
SMILES: CCCCC/C=C\C/C=C\CCCCCCCCCC(=O)OC[C@@H](O)COP(=O)([O-])OCC[N+](C)(C)C [LPC(20:2)]

collision cross section (N2) ([1]; [M-H]-): 218.4 Å²
SMILES: CCCCCCCC/C=C\CCCCCCCCCC(=O)OC[C@@H](O)COP(=O)(O)OCCN [LPE(20:1)]

collision cross section (N2) ([1]; [M-H]-): 220.1 Å²
SMILES: CCCCCCCCCCCCCCCCC(=O)OC[C@@H](O)COP(=O)(O)OC[C@H](N)C(=O)O [LPS(17:0)]

SMILES: CCCCCCCC/C=C\CCCCCCCC(=O)OC[C@@H](O)COP(=O)(O)OC[C@H](N)C(=O)O [LPS(18:1)]
collision cross section (N2) ([1]; [M+H]+): 224.2 Å²
collision cross section (N2) ([1]; [M+Na]+): 227 Å²
collision cross section (N2) ([1]; [M-H]-): 220.5 Å²

collision cross section (N2) ([1]; [M-H]-): 234.2 Å²
SMILES: CCCCCCCCCC/C=C\CCCCCCCCCC(=O)OC[C@@H](O)COP(=O)(O)OC[C@H](N)C(=O)O [LPS(22:1)]

collision cross section (N2) ([1]; [M-H]-): 249 Å²
SMILES: CCCCCCCC/C=C\CCCCCCCCCC(=O)O[C@H](COC(=O)CCCCCCCCCCC)COP(=O)(O)O [PA(32:1)]

collision cross section (N2) ([1]; [M+NH4]+): 277.7 Å²
collision cross section (N2) ([1]; [M+Na]+): 275.6 Å²
collision cross section (N2) ([1]; [M-H]-): 261.6 Å²
SMILES: CCCC/C=C\CCCCCCCC(=O)OC[C@H](COP(=O)(O)O)OC(=O)CCCCCCCCCCCCCCCCCCCCC [PA(36:1)]

collision cross section (N2) ([1]; [M+H]+): 289.2 Å²
SMILES: CCCCCCCCCC/C=C\CCCCCCCCCC(=O)O[C@H](COC(=O)CCCCCCCCCCCC)COP(=O)([O-])OCC[N+](C)(C)C [PC(35:1)]

collision cross section (N2) ([1]; [M+H]+): 298.8 Å²
SMILES: CCCCCC/C=C\CCCCCCCCCCCC(=O)O[C@H](COC(=O)CCCCCCCCCCCCCCCCC)COP(=O)([O-])OCC[N+](C)(C)C [PC(38:1)]

collision cross section (N2) ([1]; [M+H]+): 271.4 Å²
SMILES: CCCCCCCCCCCCCCCCCCCC(=O)O[C@H](COC(=O)CCCCCCCCCCC)COP(=O)(O)OCCN [PE(32:0)]

collision cross section (N2) ([1]; [M+H]+): 277.5 Å²
SMILES: CCCCCCCCCCCCCCCCCCCCCC(=O)OC[C@H](COP(=O)(O)OCCN)OC(=O)CCCCCCCCCCC [PE(34:0)]

collision cross section (N2) ([1]; [M-H]-): 299.2 Å²
SMILES: CCCCC/C=C\C/C=C\CCCCCCCC(=O)OC[C@H](COP(=O)(O)O[C@H]1C(O)C(O)C(O)[C@@H](O)C1O)OC(=O)CCCCCCCCC/C=C\CCCCCCCCCC (stereo not given in full) [PI(40:3)]

collision cross section (N2) ([3]; [M+Na]+): 198.53 Å²
collision cross section (N2) ([4]; [M+Na]+): 196.8 Å²
collision cross section (N2) ([4]; [M-H2O-H]-): 183.57 Å²
SMILES: CCCCC[C@H](O)/C=C/[C@H]1[C@H](O)CC(=O)[C@@H]1C/C=C\CCCC(=O)O [Prostaglandin E2]

collision cross section (N2) ([3]; [M+H]+): 125.4 Å²
collision cross section (N2) ([4]; [M+H]+): 121.8 Å²
SMILES: c1ncc2[nH]cnc2n1 [Purine]

collision cross section (N2) ([3]; [M+H]+): 135.42 Å²
collision cross section (N2) ([4]; [M+H]+): 130.5 Å²
SMILES: Cc1ncc(CO)c(C=O)c1O [Pyridoxal]

collision cross section (N2) ([3]; [M+H]+): 135.69 Å²
collision cross section (N2) ([3]; [M+Na]+): 148.49 Å²
collision cross section (N2) ([4]; [M+H]+): 134.6 Å²
collision cross section (N2) ([4]; [M-H]-): 130.75 Å²
SMILES: Cc1ncc(CO)c(CO)c1O [Pyridoxine]

collision cross section (N2) ([3]; [M+Na]+): 208.72 Å²
collision cross section (N2) ([4]; [M+H]+): 209 Å²
SMILES: OC[C@H]1O[C@H](OC[C@H]2O[C@H](O[C@]3(CO)O[C@H](CO)[C@@H](O)[C@@H]3O)[C@H](O)[C@@H](O)[C@@H]2O)[C@H](O)[C@@H](O)[C@H]1O [Raffinose]

collision cross section (N2) ([3]; [M+H]+): 141.13 Å²
collision cross section (N2) ([3]; [M+Na]+): 142.13 Å²
collision cross section (N2) ([4]; [M+H]+): 137.2 Å²
SMILES: N[C@@H](CSCC(=O)O)C(=O)O [S-Carboxymethyl-L-cysteine]

collision cross section (N2) ([3]; [M+Na]+): 236.4 Å²
collision cross section (N2) ([4]; [M+Na]+): 234.1 Å²
collision cross section (N2) ([4]; [M-H]-): 221.12 Å²
SMILES: OC[C@H]1O[C@H](OC[C@H]2O[C@H](OC[C@H]3O[C@H](O[C@]4(CO)O[C@H](CO)[C@@H](O)[C@@H]4O)[C@H](O)[C@@H](O)[C@@H]3O)[C@H](O)[C@@H](O)[C@H]2O)[C@H](O)[C@@H](O)[C@H]1O [Stachyose]

collision cross section (N2) ([1]; [M+NH4]+): 338.1 Å²
SMILES: CC/C=C\C/C=C\C/C=C\C/C=C\C/C=C\C/C=C\CCC(=O)OC[C@@H](COC(=O)CCCCCCC/C=C\CCCCCCCCC)OC(=O)CCCCCCC/C=C\CCCCCCCCC [TG(60:8)]

collision cross section (N2) ([1]; [M+NH4]+): 331.7 Å²
SMILES: CC/C=C\C/C=C\C/C=C\C/C=C\C/C=C\CCCCCC(=O)OC[C@@H](COC(=O)CCCC/C=C\C/C=C\C/C=C\C/C=C\CC)OC(=O)CCCCCC/C=C\C/C=C\C/C=C\CCCCC [TG(60:12)]

collision cross section (N2) ([1]; [M+NH4]+): 345.8 Å²
SMILES: CCCCC/C=C\C/C=C\CCCCCCCC(=O)OC[C@H](COC(=O)CCCCCCCCC/C=C\CCCCCCCCCC)OC(=O)CCCCCCCCC/C=C\CCCCCCCCCC [TG(62:4)]

collision cross section (N2) ([1]; [M+NH4]+): 344.1 Å²
SMILES: CC/C=C\C/C=C\C/C=C\CCCCCCCC(=O)OC[C@H](COC(=O)CCCCCCCCCCC/C=C\C/C=C\CCCCC)OC(=O)CCCCCCCCC/C=C\CCCCCCCCCC [TG(62:6)]

collision cross section (N2) ([1]; [M+NH4]+): 335.7 Å²
SMILES: CC/C=C\C/C=C\C/C=C\C/C=C\C/C=C\C/C=C\CCC(=O)OC[C@@H](COC(=O)CCCC/C=C\C/C=C\C/C=C\C/C=C\CC)OC(=O)CCCCCCCC/C=C\C/C=C\C/C=C\CCCCC [TG(62:13)]

SMILES: C[C@]12CC[C@H]3[C@@H](CCC4=CC(=O)CC[C@@]43C)[C@@H]1CC[C@@H]2O [Testosterone]
collision cross section (N2) ([3]; [M+H]+): 183.82 Å²
collision cross section (N2) ([3]; [M+Na]+): 206.07 Å²
collision cross section (N2) ([4]; [M+H]+): 172.7 Å²
collision cross section (N2) ([4]; [M-H]-): 175.64 Å²

collision cross section (N2) ([3]; [M+Na]+): 164.51 Å²
collision cross section (N2) ([4]; [M+Na]+): 161 Å²
collision cross section (N2) ([4]; [M-H]-): 151.22 Å²
SMILES: Cc1cn([C@H]2C[C@H](O)[C@@H](CO)O2)c(=O)[nH]c1=O [Thymidine]
